From PMC7145717, “A nucleotide-dependent oligomerization of the Escherichia coli replication initiator DnaA requires residue His136 for remodeling of the chromosomal origin” (Nucleic Acids Research, 2019)
Changes are numbered by the printed parent chain. In names and notes the source's numbering stands.

B1: DnaA(H136A) (natural protein, E. coli, UniProt P03004 1-467, looked up)
chain: MSLSLWQQCLARLQDELPATEFSMWIRPLQAELSDNTLALYAPNRFVLDWVRDKYLNNINGLLTSFCGADAPQLRFEVGTKPVTQTPQAAVTSNVAAPAQVAQTQPQRAAPSTRSGWDNVPAPAEPTYRSNVNVKATFDNFVEGKSNQLARAAARQVADNPGGAYNPLFLYGGTGLGKTHLLHAVGNGIMARKPNAKVVYMHSERFVQDMVKALQNNAIEEFKRYYRSVDALLIDDIQFFANKERSQEEFFHTFNALLEGNQQIILTSDRYPKEINGVEDRLKSRFGWGLTVAIEPPELETRVAILMKKADENDIRLPGEVAFFIAKRLRSNVRELEGALNRVIANANFTGRAITIDFVREALRDLLALQEKLVTIDNIQKTVAEYYKIKVADLLSKRRSRSVARPRQMAMALAKELTNHSLPEIGDAFGGRDHTTVLHACRKIEQLREESHDIKEDFSNLIRTLSS
notes: DnaA, E. coli, amino acid residues 1-467, with H136A; Made by site-directed mutagenesis on pZL411; also called ATP-DnaA(H136A)

What was measured:
[1] = biological target: T1, DnaA (Escherichia coli replication initiator DnaA) (Escherichia coli, UniProt P03004); assay: nitrocellulose filter retention assay; settings: read-out: K D (ATP binding)
T1 construct: full-length, residues 1-467, 10X-histidine-tagged, recombinant from plasmid pZL411, Ni-NTA purified (SAXS samples also Sephacryl-300 gel filtration), ~52 kDa monomer
T1 sequence (P03004 1-467): B1 chain with A136H
Source text: (§1) nitrocellulose filter retention assay on DnaA (Escherichia coli replication initiator DnaA)

[2] = biological target: T2, DnaA (Escherichia coli replication initiator DnaA) (Escherichia coli, UniProt P03004, F76A); assay: nitrocellulose filter retention assay; settings: read-out: K D (ATP binding)
T2 construct: full-length, residues 1-467, 10X-histidine-tagged, recombinant from plasmid pZL411, Ni-NTA purified (SAXS samples also Sephacryl-300 gel filtration), ~52 kDa monomer
T2 sequence (P03004 1-467 F76A): B1 chain with F76A, A136H
Source text: as §1

[3] = biological target: T3, DnaA (Escherichia coli replication initiator DnaA) (Escherichia coli, UniProt P03004, F76Y); assay: nitrocellulose filter retention assay; settings: read-out: K D (ATP binding)
T3 construct: full-length, residues 1-467, 10X-histidine-tagged, recombinant from plasmid pZL411, Ni-NTA purified (SAXS samples also Sephacryl-300 gel filtration), ~52 kDa monomer
T3 sequence (P03004 1-467 F76Y): B1 chain with F76Y, A136H
Source text: as §1

[4] = biological target: T4, DnaA (Escherichia coli replication initiator DnaA) (Escherichia coli, UniProt P03004, H136A); assay: nitrocellulose filter retention assay; settings: read-out: K D (ATP binding)
T4 construct: full-length, residues 1-467, 10X-histidine-tagged, recombinant from plasmid pZL411, Ni-NTA purified (SAXS samples also Sephacryl-300 gel filtration), ~52 kDa monomer
T4 sequence (P03004 1-467 H136A): B1 chain
Source text: as §1

[5] = biological target: T5, DnaA (Escherichia coli replication initiator DnaA) (Escherichia coli, UniProt P03004, H136Q); assay: nitrocellulose filter retention assay; settings: read-out: K D (ATP binding)
T5 construct: full-length, residues 1-467, 10X-histidine-tagged, recombinant from plasmid pZL411, Ni-NTA purified (SAXS samples also Sephacryl-300 gel filtration), ~52 kDa monomer
T5 sequence (P03004 1-467 H136Q): B1 chain with A136Q
Source text: as §1

[6] = biological target: T6, DnaA (Escherichia coli replication initiator DnaA) (Escherichia coli, UniProt P03004, Q156E); assay: nitrocellulose filter retention assay; settings: read-out: K D (ATP binding)
T6 construct: full-length, residues 1-467, 10X-histidine-tagged, recombinant from plasmid pZL411, Ni-NTA purified (SAXS samples also Sephacryl-300 gel filtration), ~52 kDa monomer
T6 sequence (P03004 1-467 Q156E): B1 chain with A136H, Q156E
Source text: as §1

[7] = biological target: T7, DnaA (Escherichia coli replication initiator DnaA) (Escherichia coli, UniProt P03004, Q156N); assay: nitrocellulose filter retention assay; settings: read-out: K D (ATP binding)
T7 construct: full-length, residues 1-467, 10X-histidine-tagged, recombinant from plasmid pZL411, Ni-NTA purified (SAXS samples also Sephacryl-300 gel filtration), ~52 kDa monomer
T7 sequence (P03004 1-467 Q156N): B1 chain with A136H, Q156N
Source text: as §1

[8] = biological target: the molecule itself; assay: cross-linking; amine-specific cross-linker DTSSP; apo or with 0.5 mM ADP, AMP-PNP or ATP; SDS-PAGE and western blot with anti-DnaA antibody

Molecule	Kd [1] [nM]	Kd [2] [nM]	Kd [3] [nM]	Kd [4] [nM]	Kd [5] [nM]	Kd [6] [nM]	Kd [7] [nM]	binding result [8]
Nc1ncnc2c1ncn2[C@@H]1O[C@H](COP(=O)(O)OP(=O)(O)OP(=O)(O)O)[C@@H](O)[C@H]1O [ATP]	110 ± 30	120 ± 30	140 ± 30	140 ± 40	100 ± 20	100 ± 20	100 ± 20	
B1								binds
